The term pIC50 denotes the negative decadic logarithm of the IC50, by convention in mol/L.

Each structure is given as a SMILES string. pIC50: −log10 of the molar value. Read-outs that look alike come from different tables or passages of the source.

The target of the assay is PDE-5 (UniProt O76074). The assay is described as follows: In vitro PDE inhibitory activity against PDE5 (batch method or scintillation proximity assay). It is filed as biochemical, human. The conditions noted are these: representative compounds. From the text: The compounds of the invention are inhibitors of cyclic guanylate monophosphate (cGMP)-specific phosphodiesterase type 5 (PDE-5 inhibitors).
The required PDE enzymes can be isolated from a variety of sources, including human corpus cavernosum, human and rabbit platelets, human cardiac ventricle, human skeletal muscle and bovine retina, essentially by a modification of the method of Thompson, W J et al.; Biochemistry 18(23), 5228-5237, 1979, as described by Ballard S A et al.; J. Urology 159(6), 2164-2171, 1998. In particular, cGMP-specific PDE5 and cGMP-inhibited cAMP PDE3 can be obtained from human corpus cavernosum tissue, human platelets or rabbit platelets; cGMP-stimulated PDE2 was obtained from human corpus cavernosum; calcium/calmodulin (Ca/CAM)-dependent PDE1 from human cardiac ventricle; cAMP-specific PDE4 from human skeletal muscle; and photoreceptor PDE6 from bovine retina. Phosphodiesterases 7-11 can be generated from full length human recombinant clones transfected into SF9 cells.
Assays can be performed either using a modification of the “batch”method of Thompson W J and Appleman M M; Biochemistry 10(2), 311-316, 1971, essentially as described by Ballard S A et al.; J. Urology 159(6), 2164-2171, 1998, or using a scintillation proximity assay for the direct detection of [^3H]-labelled AMP/GMP using a modification of the protocol described by Amersham plc under product code TRKQ7090/7100. In summary, for the scintillation proximity assay the effect of PDE inhibitors was investigated by assaying a fixed amount of enzyme in the presence of varying inhibitor concentrations and low substrate, (cGMP or cAMP in a 3:1 ratio unlabelled to [^3H]-labeled at a concentration of ˜⅓ Km, or less) such that IC50≅Ki. The final assay volume was made up to 100 μl with assay buffer [20 mM Tris-HCl pH 7.4, 5 mM MgCl2, 1 mg/ml bovine serum albumin]. Reactions were initiated with enzyme, incubated for 30-60 min at 30° C. to give <30% substrate turnover and terminated with 50 μl yttrium silicate SPA beads (containing 3 mM of the respective unlabelled cyclic nucleotide for PDEs 9 and 11).
(In general: In a scintillation proximity assay essentially only radioactivity close to the scintillant gives light.)

Turning to `Cc1cc(Nc2nc(N(C)C(C)C)nc3c(C(=O)O)nn(CCOCC(F)(F)F)c23)ccc1F` [Example 139], where the note is “read-out: IC50”, the pIC50 is 10.15.

Regarding `CCN(CC)c1nc(Nc2ccc(F)c(C)c2)c2c(n1)c(C(=O)O)nn2CCOCC(F)(F)F` [Example 140], under “read-out: IC50”, the pIC50 was 10.00.

For `CCOCCn1nc(C(=O)O)c2nc(N(C)CC(C)C)nc(Nc3cc(C)ccn3)c21` [Example 16], the pIC50 (read-out: IC50) is 9.29. Still for that read-out and setting: with `CCOCCn1nc(C(=O)O)c2nc(N(C)CC)nc(Nc3ccc(F)c(C)c3)c21` [Example 87] the figure was 10.06; with `CCCOCCn1nc(C(=O)O)c2nc(N(C)C(C)C)nc(Nc3cc(C)ccn3)c21` [Example 19], 8.61; with `Cc1ccnc(Nc2nc(N3CCCC3C)nc3c(C(=O)O)nn(CCOCC(F)(F)F)c23)c1` (stereo not shown) [Example 129, 7-[(4-Methylpyridin-2-yl)amino]-5-(2-methylpyrrolidin-1-yl)-1-[2-(2,2,2-trifluoroethoxy)ethyl]-1H-pyrazolo[4,3-d]pyrimidine-3-carboxylic acid], 8.11. The same measure, in the same setting: with `CO[C@@H](C)Cn1nc(C(=O)O)c2nc(N(C)C(C)C)nc(Nc3cc(C)ccn3)c21` [Example 135, 5-[Isopropyl(methyl)amino]-1-[(2S)-2-methoxypropyl]-7-[(4-methylpyridin-2-yl)amino]-1H-pyrazolo[4,3-d]pyrimidine-3-carboxylic acid] the figure was 8.11. With `CCN(C)c1nc(Nc2ccc(F)c(C)c2)c2c(n1)c(C(=O)O)nn2CCOCC(F)(F)F` [Example 137], under “read-out: IC50”, the pIC50 is 10.17. Still for that read-out and setting: the result for `CCOCCn1nc(C(=O)OC)c2nc(N(CC)CC)nc(Nc3ccc(F)c(C)c3)c21` [Example 117, Methyl 5-(diethylamino)-1-(2-ethoxyethyl)-7-[(4-fluoro-3-methylphenyl)amino]-1H-pyrazolo[4,3-d]pyrimidine-3-carboxylate] reads 10.60. `Cc1ccnc(Nc2nc(N(C)C)nc3c(C(=O)O)nn(CC4CCOCC4)c23)c1` [Example 57] showed a pIC50 of 7.00. Turning to `CCOCCn1nc(C(=O)OC)c2nc(N(C)C)nc(Nc3cc(C)ccn3)c21` [Example 5], the pIC50 (read-out: IC50) is 9.03. Regarding `CCOCCn1nc(C(=O)O)c2nc(N(C)C)nc(Nc3cccc(C)n3)c21` [Example 39], the pIC50 (read-out: IC50) was 7.24.

For the compound `CCN(C)c1nc(Nc2cc(C)ccn2)c2c(n1)c(C(=O)O)nn2CCOC` [Example 119], the pIC50 (read-out: IC50) is 7.94.

`CCN(C)c1nc(Nc2cc(C)ccn2)c2c(n1)c(C(=O)O)nn2CCOCC1CC1` [Example 109]: under “read-out: IC50”, the pIC50 is 8.01. Same read-out and setting: the result for `CCCOCCn1nc(C(=O)NS(C)(=O)=O)c2nc(N(CC)CC)nc(Nc3cc(C)ccn3)c21` [Example 183, 5-(Diethylamino)-7-[(4-methylpyridin-2-yl)amino]-N-(methylsulfonyl)-1-(2-propoxyethyl)-1H-pyrazolo[4,3-d]pyrimidine-3-carboxamide] reads 9.42.

On to `CCN(C)c1nc(Nc2cc(C)ccn2)c2c(n1)c(C(=O)NS(C)(=O)=O)nn2CCOCCCF` [Example 175], for which, where the note is “read-out: IC50”, the pIC50 is 9.24. As to `CCOCCn1nc(C(=O)O)c2nc(N(C)C(C)C)nc(Nc3cccc(F)c3F)c21` [Example 93], the pIC50 (read-out: IC50) is 7.63. Still for that read-out and setting: the result for `CCOCCn1nc(C(=O)NS(C)(=O)=O)c2nc(N(C)CC)nc(Nc3cc(CO)ccn3)c21` [Example 153] reads 9.40; that for `CCCN(C)c1nc(Nc2cc(C)ccn2)c2c(n1)c(C(=O)O)nn2CCOCC` [Example 15], 8.74. Consider `CCOCCn1nc(C(=O)O)c2nc(N(CC)CCOC)nc(Nc3cc(C)ccn3)c21` [Example 52], for which the pIC50 (read-out: IC50) was 8.47. Same read-out and setting: the result for `CCOCCn1nc(C(=O)NS(C)(=O)=O)c2nc(N(C)CC)nc(Nc3cc(C)ncn3)c21` [Example 157] reads 9.11; that for `CCOCCn1nc(C(=O)OCC)c2nc(N(C)CC)nc(Nc3cc(C)ccn3)c21` [Example 7, Ethyl 1-(2-ethoxyethyl)-5-(N-ethyl-N-methylamino)-7-(4-methylpyridin-2-ylamino)-1H pyrazolo[4,3-d]pyrimidine-3-carboxylate], 10.09.
